The target in one assay is T1, PKC epsilon (Homo sapiens, UniProt Q02156).
T1 construct: purchased Invitrogen P2282
T1 sequence (Q02156 1-737): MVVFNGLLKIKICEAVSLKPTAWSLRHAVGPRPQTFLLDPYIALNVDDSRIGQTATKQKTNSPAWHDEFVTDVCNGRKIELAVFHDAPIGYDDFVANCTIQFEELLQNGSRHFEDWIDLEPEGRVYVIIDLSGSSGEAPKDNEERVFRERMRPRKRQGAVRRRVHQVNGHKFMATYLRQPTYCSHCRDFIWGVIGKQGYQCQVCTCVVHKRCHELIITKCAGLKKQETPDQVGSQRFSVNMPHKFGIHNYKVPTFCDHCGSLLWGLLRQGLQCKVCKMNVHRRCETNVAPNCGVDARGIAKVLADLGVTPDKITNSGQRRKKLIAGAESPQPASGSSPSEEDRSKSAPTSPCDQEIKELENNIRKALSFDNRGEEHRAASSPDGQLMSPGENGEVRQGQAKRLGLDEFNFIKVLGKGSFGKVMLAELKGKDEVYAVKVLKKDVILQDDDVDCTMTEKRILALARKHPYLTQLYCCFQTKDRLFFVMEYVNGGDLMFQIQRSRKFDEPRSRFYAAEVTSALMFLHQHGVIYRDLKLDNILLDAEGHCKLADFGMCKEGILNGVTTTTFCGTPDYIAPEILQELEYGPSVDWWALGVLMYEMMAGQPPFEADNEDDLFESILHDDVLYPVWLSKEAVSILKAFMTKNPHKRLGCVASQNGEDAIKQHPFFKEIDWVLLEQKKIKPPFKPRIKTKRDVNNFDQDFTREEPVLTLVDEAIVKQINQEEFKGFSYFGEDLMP
The experiment in a line: Biochemical assay for PKC epsilon (fluorescence polarization, Protein Kinase C Assay Kit, Red). To be noted: read-out: IC50 μM PKCε. In outline:
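PKC epsilon at 10 ng/ml final was preincubated 30 min at room temperature with compound in HEPES pH 7.4 with DTT and Triton X-100. ATP/protein substrate was then added in buffer with MgCl2 and CaCl2 for 80 min. The reaction was stopped with EDTA, phosphorylation was detected by fluorescence polarization with rhodamine tracer and anti-phosphoserine antibody, and IC50 values came from curve fits.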

Another assay concerns the target T2, human ROCKα/ROCKII mix (Homo sapiens, UniProt O75116).
T2 construct: purchased Upstate Biotechnology 14-451
The experiment in a line: Biochemical assay for ROCK (fluorescence polarization, ROCK IMAP Kit).

Setting [1] is: Table 2, compounds of Formula XIII.
Where [2] appears, read: compounds of Formula XIV, Table 3.

Where a name gives a salt, the structure may show the parent alone. Read-outs that look alike come from different tables or passages of the source.

T2 sequence (O75116 11-552 limits assumed): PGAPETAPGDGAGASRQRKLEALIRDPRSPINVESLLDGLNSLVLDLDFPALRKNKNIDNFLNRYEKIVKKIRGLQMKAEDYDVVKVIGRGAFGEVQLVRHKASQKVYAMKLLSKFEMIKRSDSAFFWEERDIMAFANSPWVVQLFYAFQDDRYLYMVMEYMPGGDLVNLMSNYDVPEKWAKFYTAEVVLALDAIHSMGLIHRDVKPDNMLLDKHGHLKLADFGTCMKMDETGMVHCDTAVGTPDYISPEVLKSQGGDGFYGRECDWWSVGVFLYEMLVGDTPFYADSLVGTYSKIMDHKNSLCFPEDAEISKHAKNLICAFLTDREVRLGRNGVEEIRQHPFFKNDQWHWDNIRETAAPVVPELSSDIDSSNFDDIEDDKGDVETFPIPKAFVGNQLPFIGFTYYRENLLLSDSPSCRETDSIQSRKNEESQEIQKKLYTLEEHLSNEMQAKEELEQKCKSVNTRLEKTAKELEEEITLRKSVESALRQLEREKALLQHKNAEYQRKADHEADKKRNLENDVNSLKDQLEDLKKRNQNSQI

For the molecule `NC(CNC(=O)CNC(=O)c1ccccc1)c1ccc(C(=O)Nc2ccncc2)cc1` (stereo not shown) [Compound 55, 4-[1-Amino-2-(2-benzoylamino-acetylamino)-ethyl]-N-pyridin-4-yl-benzamide], the figures for the half-inhibitory concentration (IC50) on PKC epsilon (setting [1]) and against human ROCKα/ROCKII mix (setting [1]) were 5 to 50 µM and 0.05 to 0.5 µM, respectively.

For “4-[1-Amino-2-(methyl- phenylacetyl-amino)-ethyl]- N-pyridin-4-yl-benzamide [Compound 420]”, the results for the IC50 on PKC epsilon and on human ROCKα/ROCKII mix were 5 to 50 µM and 0.5 to 5 µM, respectively.

For the molecule `NC(c1ccc(C(=O)Nc2ccncc2)cc1)C1CCCN1C(=O)C1CCCc2sccc21` (stereo not shown) [Compound 621, 4-{Amino-[1-(4,5,6,7-tetrahydro-benzo[b]thiophene-4-carbonyl)-pyrrolidin-2-yl]-methyl}-N-pyridin-4-yl-benzamide], the IC50 at PKC epsilon lay in the range of 0.5 to 5 µM; at human ROCKα/ROCKII mix it was 0.05 to 0.5 µM.

As for `COCC(C)NC(=O)CC(N)c1ccc(C(=O)Nc2ccncc2)cc1` (stereo not shown) [Compound 181, 4-[1-amino-2-(2-methoxy-1-methyl-ethylcarbamoyl)-ethyl]-N-pyridin-4-yl-benzamide], the IC50 is 0.5 to 5 µM on PKC epsilon (setting [2]) and 0.05 to 0.5 µM against human ROCKα/ROCKII mix (setting [2]).

In the case of `CN(CC(N)c1ccc(C(=O)Nc2ccncc2)cc1)C(=O)Cc1ccc(Cl)c(Cl)c1` (stereo not shown) [Compound 491, 4-(1-Amino-2-{[2-(3,4-dichloro-phenyl)-acetyl]-methyl-amino}-ethyl)-N-pyridin-4-yl-benzamide], the IC50 at PKC epsilon lay in the range of 5 to 50 µM; at human ROCKα/ROCKII mix, 0.5 to 5 µM.

Regarding “4-{1-Amino-2-[methyl-(2- naphthalen-2-yl-acetyl)- amino]-ethyl}- N-pyridin-4-yl-benzamide [Compound 434]”, the concentration for half-maximal inhibition (IC50) on PKC epsilon was 0.5 to 5 µM; at human ROCKα/ROCKII mix, 0.05 to 0.5 µM.

`CC(C)(NC(=O)CC(N)c1ccc(C(=O)Nc2ccncc2)cc1)c1ccc(Cl)cc1` (stereo not shown) [Compound 622, 4-{1-Amino-2-[1-(4-chloro-phenyl)-1-methyl-ethylcarbamoyl]-ethyl}-N-pyridin-4-yl-benzamide]: the IC50 at PKC epsilon (setting [2]) and against human ROCKα/ROCKII mix (setting [2]) was 0.05 to 0.5 µM in each case.

Turning to `NC(CNC(=O)c1cccnc1)c1ccc(C(=O)Nc2ccncc2)cc1` (stereo not shown) [Compound 106, N-{2-Amino-2-[4-(pyridin-4-ylcarbamoyl)-phenyl]-ethyl}-nicotinamide], the IC50 on PKC epsilon (setting [1]) and at human ROCKα/ROCKII mix (setting [1]) was 0.5 to 5 µM each time.

`NC(CNC(=O)C1(c2ccc(F)c(F)c2)CCC1)c1ccc(C(=O)Nc2ccncc2)cc1` (stereo not shown) [Compound 378, 4-(1-Amino-2-{[1-(3,4-difluoro-phenyl)-cyclobutanecarbonyl]-amino}-ethyl)-N-pyridin-4-yl-benzamide]: the IC50 at PKC epsilon (setting [1]) was under 0.05 µM; against human ROCKα/ROCKII mix (setting [1]) it was 0.05 to 0.5 µM.

For the molecule `CN(CC(N)c1ccc(C(=O)Nc2ccncc2)cc1)C(=O)C1(c2ccc(F)cc2)CCC1` (stereo not shown) [Compound 474, 4-(1-Amino-2-{[1-(4-fluoro-phenyl)-cyclobutanecarbonyl]-methyl-amino}-ethyl)-N-pyridin-4-yl-benzamide], the half-maximal inhibitory concentration (IC50) at PKC epsilon and against human ROCKα/ROCKII mix was 0.5 to 5 µM in each case.

With `N[C@H](CC(=O)NC1COc2ccccc21)c1ccc(C(=O)Nc2ccncc2)cc1` (mixture of isomers) [Compound 403, 4-[(R)-1-Amino-2-(2,3-dihydro-benzofuran-3-ylcarbamoyl)-ethyl]-N-pyridin-4-yl-benzamide dihydrochloric acid salt], the IC50 on PKC epsilon and on human ROCKα/ROCKII mix was under 0.05 µM in each case.

As for `NC(CNC(=S)Nc1ccc(Cl)cc1)c1ccc(C(=O)Nc2ccncc2)cc1` (stereo not shown) [Compound 13, 4-{1-amino-2-[3-(4-chloro-phenyl)-thioureido]-ethyl}-N-pyridin-4-yl-benzamide], the IC50 at PKC epsilon and at human ROCKα/ROCKII mix was 0.05 to 0.5 µM in each case.

Take “4-{1-Amino-2-[(thiophen-2- ylmethyl)-carbamoyl]-ethyl}- N-pyridin-4-yl-benzamide [Compound 279]”: the half-maximal inhibitory concentration (IC50) fell in the range of 0.5 to 5 µM on PKC epsilon (setting [2]) and 0.05 to 0.5 µM against human ROCKα/ROCKII mix (setting [2]).

With “4-{1-Amino-2-[(2-1H-indol-3- yl-acetyl)-methyl- amino]-ethyl}- N-pyridin-4-yl-benzamide [Compound 443]”, the IC50 on PKC epsilon was in the range of 5 to 50 µM; at human ROCKα/ROCKII mix, 0.5 to 5 µM.

(Values after US20100168102A9, “Amide Derivatives as Kinase Inhibitors” (Devgen NV, priority 2005, published 2010).)
